Literature values as cited in patent US9492489B2, “Uses of hibiscus, in particular pharmaceutical uses” (NATUREX, priority 2007, dated 2016).

What was measured:
[1] = tested on: Escherichia coli
[2] = tested on: Staphylococcus aureus
[3] = tested on: Bacillus subtilis
[4] = tested on: Pseudomonas aeruginosa
[5] = tested on: Bacillus pumpilus

Measured: antibacterial properties in vitro

O=c1c(O)c(-c2ccc(O)c(O)c2)oc2c(O)c(O)cc(O)c12 [gossypetin, 3,5,7,8,3′,4′-hexahydroxy-flavone]
antibacterial properties: all assays above
